Results reported in ChEMBL document CHEMBL3792378, “Design, synthesis and cytotoxicity of pyrano[4,3-b]indol-1(5H)-ones: A hybrid pharmacophore approach via gold catalyzed cyclization” (Bioorg Med Chem Lett, 2016).

system: HeLa; test: Cytotoxicity against human HeLa cells incubated for 48 hrs by MTT assay; type: functional, cell-based

Structure (SMILES)	IC50 [nM]
O=c1oc(CCCO)cc2c1c1ccccc1n2Cc1ccccc1	2250
CCCCc1cc2c(c(=O)o1)c1ccccc1n2CC	1890
CC(C)(O)c1cc2c(c(=O)o1)c1ccccc1n2Cc1ccccc1	2020
O=c1oc(-c2ccccc2)cc2c1c1ccccc1n2Cc1ccccc1	690
Cn1c2ccccc2c2c(=O)oc(-c3ccccc3)cc21	1240
O=c1oc(-c2ccccc2)cc2[nH]c3ccccc3c12	2550
CCn1c2ccccc2c2c(=O)oc(-c3ccccc3)cc21	1410
CCCCc1cc2c(c(=O)o1)c1ccccc1n2C	1920
CCCCCc1cc2c(c(=O)o1)c1ccccc1n2Cc1ccccc1	1630
CCCCc1cc2c(c(=O)o1)c1ccccc1n2Cc1ccccc1	1750
CCCCn1c2ccccc2c2c(=O)oc(-c3ccccc3)cc21	1110
